Data taken from patent US12178804B2, “Salts of cycloserine compounds and applications thereof” (SyneuRx International (Taiwan) Corp., priority 2018, dated 2024).

Legend:
[1] = Stress study at 40° C./75% RH in closed system (appearance, HPLC)
[2] = Hygroscopicity test at room temperature/95% RH in an open system; assay type: physicochemical

Row | SMILES | water absorbed at the 30th day ([2]; FIG. 42) [%] | water absorbed at the 30th day ([2]; FIG. 41) [%] | water absorbed at the 60th day ([2]; FIG. 40) [%] | hygroscopicity compared with D-cycloserine and the carboxylic acids alone [2] | further results
1 | O=C(O)[C@@H](O)[C@H](O)C(=O)O [D-tartaric acid] | 177.0 |  |  |  | stability by HPLC after stress study ([1]; 40/75% RH, 30 days, FIG. 39): stable
2 | N[C@@H]1CONC1=O [D-cycloserine from Strides Shasun Ltd., D-cycloserine] | 42.7 | 41.9 | 59.2 |  | 
3 | N[C@@H]1CONC1=O [D-cycloserine] | 43.3 | 41.3 | 62.5 |  | appearance after one month stress study ([1]; 40° C./75% RH, one month): disintegrated and turned into dark yellow
4 | N[C@@H]1CONC1=O.O=C(O)C(O)C(O)C(=O)O [D-cycloserine L-tartrate] |  |  | 18.9 | much less hygroscopic | hygroscopicity (in words) ([2]; 30 days, FIG. 41): not hygroscopic; hygroscopicity (in words) ([2]; 60 days, FIG. 40): not hygroscopic
5 | N[C@@H]1CONC1=O.N[C@@H]1CONC1=O.O=C(O)C(O)C(O)C(=O)O [D-cycloserine D-tartrate] | 1.3 |  |  | much less hygroscopic | hygroscopicity (in words) ([2]; 30 days, FIG. 42): not hygroscopic
6 | O=C(O)/C=C\C(=O)O [Maleic acid, maleic acid] |  | 100.4 |  |  | 
7 | O=C(O)[C@H](O)[C@@H](O)C(=O)O [L-tartaric acid] |  |  | 244.6 |  | 
8 | N[C@@H]1CONC1=O.O=C(O)/C=C\C(=O)O [D-cycloserine maleate (1:1) salt form, D-cycloserine maleate] |  | 1.3 |  | much less hygroscopic | 
